Tests used:
Assay type in all cases: in vivo
Monocots [1] = assay: Herbicidal activity, preemergence, monocot weeds (Table II); settings: pre-emergence, 336 h, about 2 weeks, read-out: % control (percent of plants killed); for pest or weed control at 4483.4 g/ha: 4 lb./A.; for pest or weed control at 2241.7 g/ha: 2 lb./A.
In short: (§1)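 Value is mean percent kill, judged roughly 2 weeks post-treatment. Acetone/water spray at 50 gal/A, given either right after sowing in soil flats (preemergence) or once seedlings were 2 weeks old (postemergence); rates in lb/A.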

Dicots [2] = assay: Herbicidal activity, preemergence, dicot weeds (Table II); settings: pre-emergence, 336 h, about 2 weeks, read-out: % control (percent of plants killed); for pest or weed control at 4483.4 g/ha: 4 lb./A.; for pest or weed control at 2241.7 g/ha: 2 lb./A.
In short: (§2)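 Plants were scored roughly 2 weeks post-treatment for percent kill (average percent control). Treatment was an acetone–water spray in 50 gal/acre carrier at the listed pounds per acre, applied either immediately after sowing or to 2-week-old seedlings.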

Monocots [3] = assay: Herbicidal activity, postemergence, monocot weeds (Table II); settings: post-emergence, 336 h, about 2 weeks, read-out: % control (percent of plants killed); for pest or weed control at 4483.4 g/ha: 4 lb./A.; for pest or weed control at 2241.7 g/ha: 2 lb./A.
In short: as §1

Dicots [4] = assay: Herbicidal activity, postemergence, dicot weeds (Table II); settings: post-emergence, 336 h, about 2 weeks, read-out: % control (percent of plants killed); for pest or weed control at 4483.4 g/ha: 4 lb./A.; for pest or weed control at 2241.7 g/ha: 2 lb./A.
In short: as §2

cotton = assay: Crop tolerance, cotton; settings: 50% or less kill of crop at rates giving more than 50% kill of weeds
Procedure: (§3) The following test procedure is employed. Seeds of selected crops and weeds are planted in soil in flats. For preemergence tests, the flats are treated with the test compound immediately after the planting. For postemergence tests, the seeds are allowed to germinate, and after 2 weeks the flats are treated with the test compound. The compound to be evaluated is dissolved in acetone, diluted with water, and sprayed over the flats using a carrier volume equivalent to 50 gallons per acre at the rate of application (pounds per acre, lb/A.) specified in the tables. About 2 weeks after the application of the test compound, the state of growth of the plants is observed and the phytotoxic effect of the compound is evaluated. Table II gives the average percent control achieved by the test compounds in terms of the percent of the plants which are killed by the compounds.
(§4) Following the general test procedure of Example 73, diphenyl ethers are evaluated for significant tolerance (as shown by 50% or less kill of the test crop at levels of application which give more than 50% kill of many or all of the weeds of Example 73) towards some or all of the following common agronomic crops (not all compounds tested against all crops): alfalfa, snapbeans, corn, cotton, cucumbers, peanuts, rape, rice, safflower, soybeans, tomatoes, and wheat.

peanuts = assay: Crop tolerance, peanuts; settings: 50% or less kill of crop at rates giving more than 50% kill of weeds
Procedure: as §3, §4

rice = assay: Crop tolerance, rice; settings: 50% or less kill of crop at rates giving more than 50% kill of weeds
Procedure: as §3, §4

safflower = assay: Crop tolerance, safflower; settings: preemergence; 50% or less kill of crop at rates giving more than 50% kill of weeds
Procedure: as §3, §4

soybeans = assay: Crop tolerance, soybeans; settings: 50% or less kill of crop at rates giving more than 50% kill of weeds
Procedure: as §3, §4

snapbeans = assay: Crop tolerance, snapbeans; settings: preemergence; 50% or less kill of crop at rates giving more than 50% kill of weeds
Procedure: as §3, §4

corn = assay: Crop tolerance, corn; settings: 50% or less kill of crop at rates giving more than 50% kill of weeds
Procedure: as §3, §4

wheat = assay: Crop tolerance, wheat; settings: 50% or less kill of crop at rates giving more than 50% kill of weeds
Procedure: as §3, §4

[5] = postemergence or on transplanted rice

Compound	pest or weed control at 4483.4 g/ha (Monocots [1])	pest or weed control at 4483.4 g/ha (Dicots [2])	pest or weed control at 4483.4 g/ha (Monocots [3])	pest or weed control at 4483.4 g/ha (Dicots [4])	Tolerance to cotton (cotton; preemergence)	Tolerance to peanuts (peanuts; preemergence)	Tolerance to rice (rice; [5])	Tolerance to soybeans (soybeans; preemergence)	Tolerance to snapbeans (snapbeans)	Tolerance to corn (corn; postemergence)	Tolerance to corn (corn; preemergence)	Tolerance to peanuts (peanuts; postemergence)	Tolerance to rice (rice; preemergence)	Tolerance to wheat (wheat; postemergence)	Tolerance to wheat (wheat; preemergence)	pest or weed control at 2241.7 g/ha (Monocots [1])	pest or weed control at 2241.7 g/ha (Dicots [2])	pest or weed control at 2241.7 g/ha (Monocots [3])	pest or weed control at 2241.7 g/ha (Dicots [4])	other results
CCOc1cc(Oc2ccc(C(F)(F)F)cc2Cl)ccc1[N+](=O)[O-] [Example 3, 2-Chloro-α,α,α-trifluoro-p-tolyl-3-ethoxy-4-nitrophenyl ether]	89%	99%	99%	100%	Tolerance	Tolerance	Tolerance	Tolerance	–	–	–	–	–	–	–	–	–	–	–	pest or weed control at 11208.5 g/ha (Monocots [1]; 10 lb./A.): 99%; pest or weed control at 11208.5 g/ha (Dicots [2]; 10 lb./A.): 100%; pest or weed control at 11208.5 g/ha (Monocots [3]; 10 lb./A.): 100%; pest or weed control at 11208.5 g/ha (Dicots [4]; 10 lb./A.): 100%; Tolerance to cotton (cotton; postemergence or layby): Tolerance; Tolerance to safflower (safflower): Tolerance; Tolerance to soybeans (soybeans; postemergence or layby): Tolerance
CC(C)Oc1cc(Oc2ccc(C(F)(F)F)cc2Cl)ccc1[N+](=O)[O-] [Example 4]	98%	100%	80%	100%	Tolerance	–	–	Tolerance	Tolerance	Tolerance	Tolerance	Tolerance	Tolerance	Tolerance	Tolerance	–	–	–	–	–
CCOC(=O)C(C)Oc1cc(Oc2ccc(C(F)(F)F)cc2Cl)ccc1[N+](=O)[O-] (stereo not drawn) [Example 26, 2-Chloro-α,α,α-trifluoro-p-tolyl-3-(1-carbethoxyethoxy)-4-nitrophenyl ether]	98%	100%	99%	100%	–	–	–	Tolerance	Tolerance	Tolerance	–	–	–	–	Tolerance	75%	99%	93%	100%	–
C#CC(C)Oc1cc(Oc2ccc(C(F)(F)F)cc2Cl)ccc1[N+](=O)[O-] (centres unmarked) [Example 30]	81%	99%	75%	100%	Tolerance	Tolerance	Tolerance	Tolerance	–	–	–	–	Tolerance	Tolerance	–	78%	94%	91%	100%	–
CSCCOc1cc(Oc2ccc(C(F)(F)F)cc2Cl)ccc1[N+](=O)[O-] [Example 40]	86%	92%	64%	100%	–	Tolerance	Tolerance	Tolerance	–	Tolerance	Tolerance	Tolerance	Tolerance	–	Tolerance	88%	98%	81%	100%	–
CCN(CCO)c1cc(Oc2ccc(C(F)(F)F)cc2Cl)ccc1[N+](=O)[O-] [Example 54]	83%	75%	79%	100%	–	–	Tolerance	Tolerance	–	Tolerance	Tolerance	Tolerance	Tolerance	Tolerance	Tolerance	98%	98%	71%	100%	–

— USRE31731E, “Herbicidal 4-trifluoromethyl-4-nitrodiphenyl ethers” (priority 1978, dated 1984)
